# From patent US20250170248A1, “SMARCA DEGRADERS AND USES THEREOF” (Kymera Therapeutics, Inc., priority 2021, published 2025)
# Assays:
# Format in all cases: cell-based
# [1] = biological target: T1, SMARCA2 (Homo sapiens, UniProt P51531); experiment: SMARCA2 Western blot degradation in MV4-11 cells; set-up: SMARCA2/SMARCA4 protein degradation selectivity in MV4-11 cells; endogenous in cells; host or cells: MV4-11; conditions: for Dmax: MV4-11, MV4-11 cells, read-out: SMARCA2 MSD MV411 degradation 24 h: average Dmax %; for Dmax / DC50 / SMARCA2 MSD MV411 degradation 24 h: average Dmax %: 24 h; for DC50 / Selectivity in MV411 / SMARCA2 MSD MV411 degradation 24 h: average Dmax %: MV4-11 cells; for DC50: read-out: SMARCA2 MSD MV411 degradation 24 h: Mean external-Abs DC50; for Selectivity in MV411: SMARCA2/4 selectivity
# T1 sequence (P51531 whole entry): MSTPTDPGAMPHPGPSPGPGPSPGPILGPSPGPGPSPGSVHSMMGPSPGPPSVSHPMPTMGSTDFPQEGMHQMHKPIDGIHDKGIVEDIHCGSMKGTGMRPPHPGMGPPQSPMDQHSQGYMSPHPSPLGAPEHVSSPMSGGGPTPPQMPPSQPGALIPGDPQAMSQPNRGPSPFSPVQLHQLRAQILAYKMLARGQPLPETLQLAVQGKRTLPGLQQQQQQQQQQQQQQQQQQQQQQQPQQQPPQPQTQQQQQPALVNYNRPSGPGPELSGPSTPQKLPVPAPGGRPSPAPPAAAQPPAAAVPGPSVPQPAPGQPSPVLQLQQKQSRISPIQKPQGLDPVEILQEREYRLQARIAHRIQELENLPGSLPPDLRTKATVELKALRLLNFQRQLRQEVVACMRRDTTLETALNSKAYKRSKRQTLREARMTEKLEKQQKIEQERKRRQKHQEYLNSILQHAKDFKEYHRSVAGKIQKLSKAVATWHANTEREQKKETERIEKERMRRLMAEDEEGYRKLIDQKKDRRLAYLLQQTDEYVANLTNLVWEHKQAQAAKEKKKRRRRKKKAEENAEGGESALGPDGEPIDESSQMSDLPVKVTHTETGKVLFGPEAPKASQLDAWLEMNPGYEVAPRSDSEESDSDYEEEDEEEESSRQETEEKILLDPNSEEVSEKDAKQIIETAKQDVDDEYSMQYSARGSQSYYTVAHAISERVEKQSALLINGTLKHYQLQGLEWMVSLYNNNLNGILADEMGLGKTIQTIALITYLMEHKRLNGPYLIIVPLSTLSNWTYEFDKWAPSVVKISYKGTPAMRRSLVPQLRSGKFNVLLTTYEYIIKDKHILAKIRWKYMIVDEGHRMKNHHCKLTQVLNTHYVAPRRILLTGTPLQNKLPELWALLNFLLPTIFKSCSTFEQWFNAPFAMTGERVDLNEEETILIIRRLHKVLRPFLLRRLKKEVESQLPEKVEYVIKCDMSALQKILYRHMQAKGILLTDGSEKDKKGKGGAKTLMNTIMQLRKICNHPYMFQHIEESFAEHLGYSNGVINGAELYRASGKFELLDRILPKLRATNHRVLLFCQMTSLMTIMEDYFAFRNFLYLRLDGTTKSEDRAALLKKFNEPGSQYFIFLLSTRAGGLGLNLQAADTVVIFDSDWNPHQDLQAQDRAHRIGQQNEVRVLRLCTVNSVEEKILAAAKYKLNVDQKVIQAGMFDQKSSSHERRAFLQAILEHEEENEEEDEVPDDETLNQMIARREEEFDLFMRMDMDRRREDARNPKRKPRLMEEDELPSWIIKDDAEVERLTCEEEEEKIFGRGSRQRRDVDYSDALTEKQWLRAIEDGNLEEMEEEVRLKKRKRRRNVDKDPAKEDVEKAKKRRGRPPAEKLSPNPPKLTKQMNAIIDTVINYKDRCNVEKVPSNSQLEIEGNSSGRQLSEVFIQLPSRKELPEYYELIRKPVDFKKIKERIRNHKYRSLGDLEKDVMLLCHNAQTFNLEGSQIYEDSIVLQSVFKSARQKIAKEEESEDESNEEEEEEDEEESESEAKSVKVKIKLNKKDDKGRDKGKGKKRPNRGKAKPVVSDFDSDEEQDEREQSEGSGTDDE
# [2] = biological target: T2, SMARCA4 (Homo sapiens, UniProt P51532); experiment: SMARCA4 Western blot degradation in MV4-11 cells; conditions: for Dmax: MV4-11, MV4-11 cells, read-out: SMARCA4 MSD MV411 degradation 24 h: average Dmax %; for Dmax / DC50: 24 h; for DC50 / SMARCA4 MSD MV411 degradation 24 h: average Dmax %: MV4-11 cells; for DC50: read-out: SMARCA4 MSD MV411 degradation 24 h: Mean external-Abs DC50
# T2 construct: SMARCA2/SMARCA4 protein degradation selectivity in MV4-11 cells; endogenous in cells; host or cells: MV4-11
# T2 sequence (P51532 whole entry): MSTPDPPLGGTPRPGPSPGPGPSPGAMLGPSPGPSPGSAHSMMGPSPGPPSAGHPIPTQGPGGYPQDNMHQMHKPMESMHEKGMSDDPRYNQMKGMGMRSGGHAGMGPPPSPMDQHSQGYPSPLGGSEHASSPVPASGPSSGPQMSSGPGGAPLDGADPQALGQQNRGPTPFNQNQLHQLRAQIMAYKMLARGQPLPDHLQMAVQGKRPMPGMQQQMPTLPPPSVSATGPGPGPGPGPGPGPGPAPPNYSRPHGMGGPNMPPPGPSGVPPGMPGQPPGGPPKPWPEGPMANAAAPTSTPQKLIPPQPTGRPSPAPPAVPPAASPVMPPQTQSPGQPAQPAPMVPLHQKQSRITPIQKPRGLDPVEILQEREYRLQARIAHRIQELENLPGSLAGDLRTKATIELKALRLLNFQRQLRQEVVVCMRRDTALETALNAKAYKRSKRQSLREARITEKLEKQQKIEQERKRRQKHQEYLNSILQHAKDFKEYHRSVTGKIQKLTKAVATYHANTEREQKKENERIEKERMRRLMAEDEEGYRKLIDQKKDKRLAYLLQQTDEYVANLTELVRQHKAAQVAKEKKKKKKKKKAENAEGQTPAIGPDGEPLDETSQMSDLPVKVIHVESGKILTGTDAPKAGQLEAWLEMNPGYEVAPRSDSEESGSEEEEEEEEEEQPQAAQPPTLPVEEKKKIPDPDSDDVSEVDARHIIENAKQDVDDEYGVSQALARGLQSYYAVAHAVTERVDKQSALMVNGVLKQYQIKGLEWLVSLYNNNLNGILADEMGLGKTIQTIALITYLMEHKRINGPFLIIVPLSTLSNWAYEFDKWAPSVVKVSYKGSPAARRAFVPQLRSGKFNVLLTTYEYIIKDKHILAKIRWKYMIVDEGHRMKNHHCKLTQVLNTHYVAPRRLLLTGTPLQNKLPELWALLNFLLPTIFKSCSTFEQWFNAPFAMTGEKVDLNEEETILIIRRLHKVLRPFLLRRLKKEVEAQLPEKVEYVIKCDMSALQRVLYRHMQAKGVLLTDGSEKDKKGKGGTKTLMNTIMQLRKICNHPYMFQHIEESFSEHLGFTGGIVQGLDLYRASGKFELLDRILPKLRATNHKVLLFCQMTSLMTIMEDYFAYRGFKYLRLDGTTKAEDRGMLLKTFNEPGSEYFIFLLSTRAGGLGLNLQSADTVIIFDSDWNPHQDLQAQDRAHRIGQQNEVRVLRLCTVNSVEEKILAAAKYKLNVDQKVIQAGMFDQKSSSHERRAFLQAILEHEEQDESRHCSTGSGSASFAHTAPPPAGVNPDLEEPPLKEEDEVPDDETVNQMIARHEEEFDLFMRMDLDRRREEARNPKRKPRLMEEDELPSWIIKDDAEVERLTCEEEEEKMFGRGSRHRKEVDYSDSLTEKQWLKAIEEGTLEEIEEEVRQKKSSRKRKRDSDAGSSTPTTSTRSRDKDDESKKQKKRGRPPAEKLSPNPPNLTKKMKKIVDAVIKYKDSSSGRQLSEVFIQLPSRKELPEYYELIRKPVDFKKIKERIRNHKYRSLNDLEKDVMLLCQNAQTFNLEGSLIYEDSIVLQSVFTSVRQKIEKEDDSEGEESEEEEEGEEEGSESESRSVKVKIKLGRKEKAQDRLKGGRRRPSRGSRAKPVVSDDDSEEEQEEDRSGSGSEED
# In short: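 MV4-11 cells (4×10^6/well) treated with compound for 24 h, lysed in RIPA with protease/phosphatase inhibitors, and SMARCA2, SMARCA4 and beta-actin detected by Western blot with LI-COR readout. Values reported as letter-coded DC50, 24 h Dmax % and SMARCA2/4 selectivity fold.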
# [3] = biological target: T1, SMARCA2; experiment: MSD SMARCA2 degradation in A549 cell line; conditions: for Dmax: A549, A549 cells; for Dmax / DC50: 24 h; for DC50 / SMARCA2 MSD A549 degradation 24 h: Average Dmax %: A549 cells; for DC50: read-out: SMARCA2 MSD A549 degradation 24 h: Average external-Abs DC50
# In short: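 A549 cells treated 24 h with compound, 3-fold series from 1000 nM. Lysates captured on MSD plates and SMARCA2 quantified with anti-SMARCA2 and SULFO-TAG secondary antibodies (electrochemiluminescence). DC50 and Dmax (% degradation at 24 h) reported as letter bins.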
SMILES,Dmax [1] [%],DC50 [1] [nM],Selectivity in MV411 [1],Dmax [2] [%],DC50 [2] [nM],Dmax [3] [%],DC50 [3] [nM],SMARCA2 MSD MV411 degradation 24 h: average Dmax % [1],SMARCA4 MSD MV411 degradation 24 h: average Dmax % [2],SMARCA2 MSD A549 degradation 24 h: Average Dmax % [3]
"Cc1ncsc1-c1ccc(CNC(=O)[C@@H]2C[C@@H](O)CN2C(=O)[C@@H](NC(=O)C2(F)CC2)C(C)(C)C)c(OCCCCN2CCC(c3cnc(N4CCN5c6cc(-c7ccccc7O)nnc6NC[C@H]5C4)nc3)CC2)c1 (single isomer, unassigned) [I-49]",> 90,< 1,C (C (10-100 fold)),> 90,1 to 10,> 90,10 to 50,,,
"Cc1ncsc1-c1ccc(CNC(=O)[C@@H]2C[C@@H](O)CN2C(=O)C(c2cc(OCCCN3CCC(c4cnc(N5CCN6c7cc(-c8ccccc8O)nnc7NC[C@H]6C5)nc4)CC3)no2)C(C)C)cc1 (single isomer, unassigned) [I-53]",> 90,< 1,D (D (<10 fold)),> 90,1 to 10,> 90,10 to 50,,,
"Cc1ncsc1-c1ccc(CNC(=O)[C@@H]2C[C@@H](O)CN2C(=O)[C@@H](NC(=O)N2CC3(CCC(N4CCC(c5cnc(N6CCc7[nH]c8nnc(-c9ccccc9O)cc8c7[C@@H]6C)nc5)CC4)CC3)C2)C(C)(C)C)cc1 (single isomer, unassigned) [I-63]",70 to 90,10 to 100,C (C (10-100 fold)),50 to 70,> 100,> 90,10 to 50,,,
"C#Cc1ccc(CNC(=O)[C@@H]2C[C@@H](O)CN2C(=O)[C@@H](NC(=O)N2CC3(CC(N4CCC(c5cnc(N6CCc7[nH]c8nnc(-c9ccccc9O)cc8c7[C@H]6C)nc5)CC4)C3)C2)C(C)(C)C)cc1 (single isomer, unassigned) [I-73]",> 90,1 to 10,C (C (10-100 fold)),70 to 90,10 to 100,> 90,< 10,,,
"Cc1ncsc1-c1ccc(CNC(=O)[C@@H]2C[C@@H](O)CN2C(=O)[C@@H](NC(=O)[C@H]2CC3(C2)C[C@H](N2CCN(c4cnc(N5CCc6[nH]c7nnc(-c8ccccc8O)cc7c6[C@H]5C)nc4)CC2)C3)C(C)(C)C)cc1 (single isomer, unassigned) [I-76]",70 to 90,1 to 10,C (C (10-100 fold)),50 to 70,> 100,> 90,10 to 50,,,
"Cc1ncsc1-c1ccc(CNC(=O)[C@@H]2C[C@@H](O)CN2C(=O)[C@@H](NC(=O)[C@H]2CC3(C2)C[C@H](N2CCN(c4cnc(N5CCc6[nH]c7nnc(-c8ccccc8O)cc7c6[C@H]5C)nc4)CC2)C3)C(C)(C)C)cc1 (single isomer, unassigned) [I-77]",,1 to 10,C (C (10-100 fold)),,> 100,,10 to 50,B (B (>70-90% degradation)),D (D (<50% degradation)),A (A (>90% degradation))
"Cc1ncsc1-c1ccc(CNC(=O)[C@@H]2C[C@@H](O)CN2C(=O)[C@@H](NC(=O)[C@H]2CC3(CC[C@H](N4CCN(c5cnc(N6CCc7[nH]c8nnc(-c9ccccc9O)cc8c7[C@H]6C)nc5)CC4)CC3)C2)C(C)(C)C)cc1 (single isomer, unassigned) [I-78]",70 to 90,10 to 100,B (B (>100-500 fold)),< 50,> 100,> 90,10 to 50,,,
"Cc1ncsc1-c1ccc(CNC(=O)[C@@H]2C[C@@H](O)CN2C(=O)[C@@H](NC(=O)[C@H]2CC3(CC[C@H](N4CCN(c5cnc(N6CCc7[nH]c8nnc(-c9ccccc9O)cc8c7[C@H]6C)nc5)CC4)CC3)C2)C(C)(C)C)cc1 (single isomer, unassigned) [I-79]",,10 to 100,C (C (10-100 fold)),,> 100,,> 100,B (B (>70-90% degradation)),D (D (<50% degradation)),A (A (>90% degradation))
"Cc1ncsc1-c1ccc(CNC(=O)[C@@H]2C[C@@H](O)CN2C(=O)[C@@H](NC(=O)[C@H]2CC3(CC[C@H](N4CCN(c5ccnc(N6CCc7[nH]c8nnc(-c9ccccc9O)cc8c7[C@H]6C)n5)CC4)CC3)C2)C(C)(C)C)cc1 (single isomer, unassigned) [I-81]",,1 to 10,C (C (10-100 fold)),,10 to 100,,10 to 50,A (A (>90% degradation)),B (B (>70-90% degradation)),A (A (>90% degradation))

# The remaining lines, values ahead:
Dmax [1] [%],DC50 [1] [nM],Selectivity in MV411 [1],Dmax [2] [%],DC50 [2] [nM],Dmax [3] [%],DC50 [3] [nM],SMARCA2 MSD MV411 degradation 24 h: average Dmax % [1],SMARCA4 MSD MV411 degradation 24 h: average Dmax % [2],SMARCA2 MSD A549 degradation 24 h: Average Dmax % [3],SMILES
> 90,1 to 10,C (C (10-100 fold)),> 90,10 to 100,70 to 90,50 to 100,,,,"Cc1ncsc1-c1ccc([C@H](C)NC(=O)[C@@H]2C[C@@H](O)CN2C(=O)[C@@H](NC(=O)Cc2ccc(CCCC(=O)N3CCN4c5cc(-c6ccccc6O)nnc5NC[C@H]4C3)cc2)C(C)(C)C)cc1 (single isomer, unassigned) [I-83]"
70 to 90,10 to 100,C (C (10-100 fold)),> 90,10 to 100,> 90,10 to 50,,,,"Cn1nccc1-c1ccc(CNC(=O)[C@@H]2C[C@@H](O)CN2C(=O)[C@@H](NC(=O)[C@H]2CC[C@H](c3ccc(-c4cnc(N5CCN6c7cc(-c8ccccc8O)nnc7NC[C@H]6C5)nc4)cc3)CC2)C(C)(C)C)cc1 (single isomer, unassigned) [I-87]"
> 90,< 1,C (C (10-100 fold)),> 90,1 to 10,> 90,< 10,,,,"Cn1nccc1-c1ccc(CNC(=O)[C@@H]2C[C@@H](O)CN2C(=O)[C@@H](NC(=O)[C@H]2CC[C@@H](c3ccc(-c4cnc(N5CCN6c7cc(-c8ccccc8O)nnc7NC[C@H]6C5)nc4)cc3)CC2)C(C)(C)C)cc1 (single isomer, unassigned) [I-88]"
70 to 90,10 to 100,C (C (10-100 fold)),< 50,> 100,70 to 90,> 100,,,,"C#Cc1ccc(CNC(=O)[C@@H]2C[C@@H](O)CN2C(=O)[C@@H](NC(=O)C2CCC3(CC2)CC(N2CCC(N4CCC[C@H](C(=O)N5CCN6c7cc(-c8ccccc8O)nnc7NC[C@H]6C5)C4)CC2)C3)C(C)(C)C)cc1 (single isomer, unassigned) [I-90]"
70 to 90,1 to 10,A (A (>500 fold)),< 50,> 100,> 90,> 100,,,,"C#Cc1ccc(CNC(=O)[C@@H]2C[C@@H](O)CN2C(=O)[C@@H](NC(=O)C2CCC3(CC2)CC(N2CCC(N4CCC[C@@H](C(=O)N5CCN6c7cc(-c8ccccc8O)nnc7NC[C@H]6C5)C4)CC2)C3)C(C)(C)C)cc1 (single isomer, unassigned) [I-91]"
